Consider 8 compounds from patent US20140243348A1, “COMPOSITIONS AND METHODS FOR TREATING HERPES VIRUSES” (President and Fellows of Harvard College, priority 2011, published 2014).

Molecules are shown by their SMILES.

One experiment has as its target HCMV UL89 (Human cytomegalovirus, UniProt P16732). Particulars: cited from earlier work.
The subject of a further experiment is wild type HSV-1. The experiment is described as follows: HSV yield reduction assay (plaque assay) with HIV integrase inhibitors. The following applies: 100 μM; FIG. 6. The experiment is classed as cell-based.
The test system of the next experiment is HSV-1 KOS virus. The experiment is described as follows: Screen of 118-D-24 derivatives on HSV-1 KOS replication in Hep2 cells. The experiment is classed as cell-based. Particulars: 250 μM, MOI=0.01, 48 hours, FIG. 12. The protocol: To evaluate the effects of 118-D-24 derivatives on HSV replication, a panel of derivatives (Table 1) (Zhao, X. Z., 2008, J. Med. Chem., vol. 51, pages 251-259) were screened for their ability to inhibit HSV-1 KOS virus replication in Hep2 cells. Hep2 cells were plated in a 6-well plate and incubated overnight to reach confluency. The cells were then inoculated with HSV-1 KOS virus at MOI=0.01 for 1 hour. Following inoculation, the virus inoculum was replaced with DMEV medium containing 118-D-24 or a derivative of 118-D-24. After 48 hours, samples were harvested by adding an equal volume of 10% non-fat milk and immediately frozen at −80° C. Samples were freeze-thawed three times to rupture the cell membranes and allow the release of virus. Virus titers were determined by titration on Vero cells. The 100% yield represents the viral titer in samples without drug treatment. […] Hep2 cells or (FIG. 14A) or HFF cells (FIG. 14B) were infected with HSV-1 virus (KOS strain) at MOI of 0.01. Samples were then processed and percent yield remaining values were calculated. EC50 and EC90 values were calculated using nonlinear regression curve fit with a variable slope. GaraphPad Prism 5 software was used for all analyses. (FIG. 14C) Cytotoxicity of XZ45 on the viability of Hep2 cells during a 48-hour incubation period was evaluated using the Promega cell titer glo assay, as described by the manufacturer. The reported values are percent […] remaining relative to the […] from cells grown in media containing DMSO alone. CC50 value was determined as described above. FIGS. 14A and 14B show the effects of XZ45 on HSV-1 replication in Hep2 cells (14A) and normal human foreskin fibroblasts (14B) and the cytotoxicity of XZ45 in Hep2 cells is shown in FIG. 14C.

The next experiment has as its system HSV-2 strain G. The experiment in a line: XZ45 viral yield assay, HSV-2. The experiment is classed as cell-based. Particulars: Hep2 cells, MOI 0.01, 48 hours; FIG. 15A. On the procedure: (§1) Hep2 cells were infected with HSV-1 strain KOS, strain F, or HSV-2 strain G at MOI of 0.01. The infected cells were grown in media containing increasing concentrations of XZ45 or DMSO for 48 hours. Samples were harvested and viral yield was determined by plaque assay on Vero cells. The reported values are percent yield remaining relative to cells grown in media containing DMSO alone (FIG. 15A). Hep2 cells (FIG. 15B) or HFF cells (FIG. 15C) were infected with HSV-1 virus (KOS strain) at MOI of 10 or 0.01 or with human cytomegalovirus (HCMV) (FIG. 16). Samples were then processed and percent yield remaining values were calculated as describe above.

Another experiment deals with HSV-1 KOS viral DNA. The experiment is described as follows: XZ45 viral DNA synthesis (real-time PCR) in Hep2 cells. The experiment is classed as cell-based. Particulars: 10 μM XZ45, MOI=10, FIG. 17A. The protocol: (§2) Hep2 cells were infected with HSV-1 KOS at an MOI=10 in the presence or absence of 10 μM XZ45. Total DNA was harvested at the times indicated, and viral DNA levels in each sample were determined by real-time PCR and were normalized to the levels of cellular DNA. […] Hep2 cells were infected with HSV-1 KOS in the presence or absence of 10 μM XZ45. Lysates were prepared for immunoblotting at the indicated times. Polypeptides were resolved by SDS-PAGE, transferred to a PVDF membrane, and probed for representative immediate-early (ICP27), early (ICP8), and late (gC) gene products.

Experiment [1] has as its target T1, ICP8 (Human herpesvirus 1, UniProt P17470). The experiment is described as follows: ssDNA binding by ICP8 (EMSA, ssDNA beads pull down, ssDNA-cellulose). The following applies: three assays; FIG. 18A-18C. On the procedure: The effect of XZ45 on ssDNA binding by ICP8 was measured by EMSA assay with purified ICP8 protein using ^32P-labled polynucleotide ssDNA probe (FIG. 18A); ssDNA beads pull down assay (FIG. 18B), and ICP8 binding to ssDNA-cellulose (FIG. 18C).
On the technique in general: Mobility shift assays separate free from complexed probe on a gel.

Experiment [2] deals with T1, ICP8. The experiment in a line: D-loop assay of ICP8 mediated recombination. The experiment is classed as biochemical. The following applies: 0, 10, 20, or 40 μM XZ45; FIG. 20. The protocol:
To further test the effect of XZ45 on ICP8 mediated recombination a D-loop assay was used. A double stranded DNA probe was mixed with a single stranded DNA oligonucleotide in the presence or absence of ICP8 with 0, 10, 20, or 40 μM XZ45. Following incubation, the reaction products were analyzed by electrophoresis through a native gel.

The subject of experiment [3] is human cytomegalovirus (HCMV). The experiment is described as follows: XZ45 viral yield assay, HCMV. The experiment is classed as cell-based. Particulars: FIG. 16. The protocol:
as §1

Experiment [4] relates to HSV-1 strain KOS, strain F. The experiment in a line: XZ45 viral yield assay, HSV-1. The following applies: Hep2 or HFF cells, 48 hours; FIG. 15. The experiment is classed as cell-based. The protocol: as §1
The next experiment has as its system HSV recombination. The experiment in a line: HSV recombination in Hep2 cells coinfected with 8LacZ and hr99. The experiment is classed as cell-based. Particulars: 20 hours after infection, compared to PAA, FIG. 19. The protocol:
To test the effect of XZ45 on HSV recombination during viral replication, 8LacZ (deletion of ul29) and hr99 (deletion of ul5) virus were used to coinfect Hep2 cells in the presence of XZ45 or PAA. At 20 hours after infection, samples were harvested and progeny virus were tittered on Vero cells and V529 cells to determine the viral titer of recombinated virus and total virus. The recombination rate reflects the ratio between the titer of recombinated virus and total virus.

Experiment [5] has as its system HSV-1 KOS late (gC) gene products. The experiment in a line: XZ45 viral gene expression by immunoblotting in Hep2 cells. The experiment is classed as cell-based. The following applies: 10 μM XZ45, FIG. 17B. The protocol:
as §2
A general note: In western blotting, separated proteins are transferred to a membrane and probed.

T1 sequence (P17470 whole entry): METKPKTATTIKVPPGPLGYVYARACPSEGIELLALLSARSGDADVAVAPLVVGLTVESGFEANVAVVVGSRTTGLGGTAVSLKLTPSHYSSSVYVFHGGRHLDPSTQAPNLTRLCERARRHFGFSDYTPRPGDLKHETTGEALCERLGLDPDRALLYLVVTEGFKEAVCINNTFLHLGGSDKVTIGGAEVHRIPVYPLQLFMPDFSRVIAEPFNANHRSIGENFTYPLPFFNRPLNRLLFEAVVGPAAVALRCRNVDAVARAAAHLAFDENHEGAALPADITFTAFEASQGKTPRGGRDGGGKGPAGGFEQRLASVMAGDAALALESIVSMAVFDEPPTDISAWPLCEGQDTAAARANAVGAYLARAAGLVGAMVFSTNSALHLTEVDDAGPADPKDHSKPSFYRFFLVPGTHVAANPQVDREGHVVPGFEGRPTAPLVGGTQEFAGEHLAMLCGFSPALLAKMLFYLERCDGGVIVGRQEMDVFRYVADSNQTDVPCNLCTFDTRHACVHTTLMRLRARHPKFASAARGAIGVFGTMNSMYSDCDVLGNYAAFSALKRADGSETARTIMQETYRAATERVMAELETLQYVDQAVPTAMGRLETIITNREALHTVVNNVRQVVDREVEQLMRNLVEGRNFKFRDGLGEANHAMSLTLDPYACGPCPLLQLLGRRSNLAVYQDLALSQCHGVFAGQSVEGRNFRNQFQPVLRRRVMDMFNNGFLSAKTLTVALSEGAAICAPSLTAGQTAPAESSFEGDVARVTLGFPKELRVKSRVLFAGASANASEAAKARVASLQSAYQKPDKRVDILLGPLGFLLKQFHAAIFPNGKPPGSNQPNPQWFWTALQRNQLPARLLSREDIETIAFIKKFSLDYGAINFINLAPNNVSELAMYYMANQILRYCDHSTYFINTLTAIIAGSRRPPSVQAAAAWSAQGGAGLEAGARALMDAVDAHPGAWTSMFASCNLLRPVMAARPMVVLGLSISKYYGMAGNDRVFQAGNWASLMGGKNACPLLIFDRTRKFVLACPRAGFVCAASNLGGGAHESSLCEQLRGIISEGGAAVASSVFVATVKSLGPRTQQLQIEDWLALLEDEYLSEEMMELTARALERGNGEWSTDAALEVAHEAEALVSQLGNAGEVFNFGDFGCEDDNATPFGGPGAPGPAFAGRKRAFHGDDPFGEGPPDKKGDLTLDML
HCMV UL89, sequence (P16732 whole entry): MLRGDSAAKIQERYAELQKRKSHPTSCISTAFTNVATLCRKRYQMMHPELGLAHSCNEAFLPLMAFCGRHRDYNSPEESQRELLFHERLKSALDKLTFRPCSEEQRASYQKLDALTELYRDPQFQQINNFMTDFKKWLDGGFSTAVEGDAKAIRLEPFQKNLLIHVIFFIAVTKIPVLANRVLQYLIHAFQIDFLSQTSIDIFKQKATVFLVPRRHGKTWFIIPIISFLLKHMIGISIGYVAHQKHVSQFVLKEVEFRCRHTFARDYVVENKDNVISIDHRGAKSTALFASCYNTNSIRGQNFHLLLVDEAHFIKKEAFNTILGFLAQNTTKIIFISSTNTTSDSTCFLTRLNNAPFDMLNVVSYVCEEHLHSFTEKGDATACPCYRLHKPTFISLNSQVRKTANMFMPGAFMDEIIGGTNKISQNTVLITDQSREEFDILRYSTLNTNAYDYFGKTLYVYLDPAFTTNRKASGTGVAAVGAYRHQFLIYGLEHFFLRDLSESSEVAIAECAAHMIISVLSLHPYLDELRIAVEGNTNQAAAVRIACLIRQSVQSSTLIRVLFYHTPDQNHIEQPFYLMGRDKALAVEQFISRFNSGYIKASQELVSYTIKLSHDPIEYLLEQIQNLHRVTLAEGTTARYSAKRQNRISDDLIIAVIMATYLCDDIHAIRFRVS
Description for wild type HSV-1: At 48 hours post infection, viral yield samples were harvested and the yield was determined by plaque assay. Values are presented as the percent yield remaining, relative to the DMSO vehicle control treatment.
Cells were infected with wild type HSV-1 at a multiplicity of infection of 0.01 plaque-forming units per cell and treated with the indicated concentration of the HIV integrase inhibitor specified. At 48 hours post infection, viral yield samples were harvested and the yield was determined by plaque assay. Values are presented as the percent yield remaining, relative to the DMSO vehicle control treatment.

Regarding `Cc1nnc(C(=O)NC(C)(C)c2nc(C(=O)NCc3ccc(F)cc3)c(O)c(=O)n2C)o1` [Raltegravir], at HCMV UL89, the “HCMV UL89 activity” value is “inhibit HCMV UL89 activity”. Besides, the “reduction of HSV viral yield” value with wild type HSV-1 was “greater than 96%”.
With `O=C1c2c(ccc(O)c2O)CN1N1C(=O)c2ccc(O)c(O)c2C1=O` [XZ50], the “viral yield (in words)” value with HSV-1 KOS virus is on record as “significant reductions in viral yield”.
With `O=C(NNC(=O)c1cccc(O)c1O)c1ccccc1O` [XZ45], the “replication of HSV-2” value in the experiment with HSV-2 strain G is recorded as “inhibits the replication”. In the experiment on HSV-1 KOS viral DNA, the “viral DNA synthesis” value is recorded as “Inhibits Viral DNA Synthesis”. For the same compound, the “ssDNA binding by ICP8” value on ICP8 [1] was “does not affect ssDNA binding”. Further, the “ICP8 mediated formation of D-loops” value on ICP8 [2] is “inhibited the ICP8 mediated formation of D-loops”. Also, the “replication of HCMV” value in experiment [3] was “inhibits the replication”. In experiment [4], the “replication of HSV-1” value was “inhibits the replication”. Also, the “viral yield (in words)” value with HSV-1 KOS virus is “significant reductions in viral yield”. Also, the “HSV recombination (recombination rate)” value with HSV recombination was “significantly inhibited HSV recombination”. Moreover, in [5], the “expression of the late gene (gC) products” value is on record as “significantly inhibited”.
`O=C1c2c(ccc(O)c2O)CN1N1Cc2ccc(O)c(O)c2C1=O` [XZ48]: the “viral yield (in words)” value in the experiment with HSV-1 KOS virus was “significant reductions in viral yield”.
Regarding `O=C(NNC(=O)c1cccc(O)c1O)c1cccc(O)c1O` [XZ15], in the experiment on HSV-1 KOS virus, the “viral yield (in words)” value is “significant reductions in viral yield”.
Take `O=C(NN1Cc2ccc(O)c(O)c2C1=O)c1cccc(O)c1O` [XZ49]: in the experiment with HSV-1 KOS virus, the “viral yield (in words)” value is given as “significant reductions in viral yield”.
Same read-out and setting: in the case of `[N-]=[N+]=NCc1cccc(CN2C(=O)c3ccc(O)c(O)c3C2=O)c1` [XZ100] it was “significant reductions in viral yield”; in that of `[N-]=[N+]=NCc1cccc(CN2Cc3ccc(O)c(O)c3C2=O)c1` [XZ99], “significant reductions in viral yield”.
